# Results published in ChEMBL document CHEMBL5241105, “Natural Products with Potential for Nonhormonal Male Contraception” (J Nat Prod, 2021).
# Key:
# Rattus norvegicus [1] = species: Rattus norvegicus; assay: Antifertility in male rat assessed as reduction in fertility relative to control; type: functional; design: scale not given: the % may be the effect or the level left
# Homo sapiens = species: Homo sapiens; assay: Inhibition of calcium channel (unknown origin) at 2 mg/ml relative to control
# Oryctolagus cuniculus = assay: Antifertility activity in rabbit assessed as inhibition of spermatid production at 25 mg/kg, po (reference value: 33.9 %); type: functional; design: scale not given: the % may be the effect or the level left
# Meriones unguiculatus = assay: Antifertility activity in gerbils assessed as inhibition of spermatid production at 25 mg/kg, po (reference value: 51.2 %); type: functional; design: scale not given: the % may be the effect or the level left
# Rattus norvegicus [2] = species: Rattus norvegicus; assay: Antifertility activity in Sprague-Dawley rat assessed as sperm with normal morphology (reference value: 77.2 +/- 16.9%); type: functional
# [3] = Toxicity in oral dosed rat assessed as median lethal dose; type: organism-based; details: in vivo
# Rattus norvegicus [4] = species: Rattus norvegicus; assay: Antifertility activity in Sprague-Dawley rat assessed as reduction in cauda epididymal sperm count (reference value: 41.5 +/- 19.3 10^6/ml); type: functional
# Rattus norvegicus [5] = species: Rattus norvegicus; assay: Antifertility activity in Sprague-Dawley rat assessed as motile sperm percentage (reference value: 85.7 +/- 16.9%); type: functional
# Rattus norvegicus [6] = species: Rattus norvegicus; assay: Antifertility activity in albino rat assessed as inhibition of motility (reference value: 30.75 %); type: functional; design: scale not given: the % may be the effect or the level left
# Rattus norvegicus [7] = assay: Antifertility activity in rat assessed as decrease in fertility at 10 mg/kg administered daily relative to control; type: functional; design: scale not given: the % may be the effect or the level left
# Mus musculus [8] = species: Mus musculus; assay: Antifertility activity in mouse assessed as reduction in testicular weight relative to control; type: functional; design: scale not given: the % may be the effect or the level left
# Hamster = assay: Antifertility activity in hamster assessed as decrease in egg fertilization percentage at 0.70 to 1.05 mM (reference value: 93.6 +/- 3.12 %); type: functional, Cricetinae; design: scale not given: the % may be the effect or the level left; details: dose 0.7-1.05 mM; at 0.7 to 1.05 mM
# Rattus norvegicus [9] = assay: Antifertility activity in male albino rat assessed as reduction in number of spermatids at 15 mg/kg administered daily relative to control; type: functional; design: scale not given: the % may be the effect or the level left
# Rattus norvegicus [10] = assay: Antifertility activity in male albino rat assessed as reduction in spermatids at 15 mg/kg administered daily relative to control; type: functional; design: scale not given: the % may be the effect or the level left
# Rattus norvegicus [11] = assay: Antifertility activity in male albino rat assessed as reduction in sertoli cells at 15 mg/kg administered daily relative to control; type: functional; design: scale not given: the % may be the effect or the level left
# Rattus norvegicus [12] = assay: Antifertility activity in male Sprague-Dawley rat assessed as infertility at 100 microg/kg/day measured for 63 to 70 days relative to control; type: functional; details: dose 100 µg/kg/day; time 63-70 day
# Mus musculus [13] = assay: Antifertility activity in C57BL/6J male mouse assessed as reduction in forward sperm motility at 0.8 mg/kg administered via oral gavage for 4 weeks relative to control; type: functional; design: scale not given: the % may be the effect or the level left
# Mus musculus [14] = assay: Antifertility activity in C57BL/6J male mouse assessed as head bend back deformation at 0.8 mg/kg administered via oral gavage for 4 weeks relative to control; type: functional
# [15] = Toxicity in rat assessed as median lethal dose; details: in vivo
# [16] = Toxicity in mouse assessed as median lethal dose; details: in vivo
# Mus musculus [17] = species: Mus musculus; assay: Antifertility against male C57BL/6J mouse assessed as infertility; type: functional, organism-based
smiles,measurement,setting,value
CC1(C)C[C@H]2C3=CC[C@@H]4[C@@]5(C)CC[C@H](O[C@@H]6O[C@H](CO[C@@H]7OC[C@@H](O)[C@H](O)[C@H]7O[C@@H]7OC[C@@H](O)[C@H](O)[C@H]7O)[C@@H](O)[C@H](O)[C@H]6O)C(C)(C)[C@@H]5CC[C@@]4(C)[C@]3(C)C[C@@H](O)[C@@]23C[C@@H]1OC3=O,Activity,Rattus norvegicus [1],100%
CC1(C)C[C@H]2C3=CC[C@@H]4[C@@]5(C)CC[C@H](O[C@@H]6O[C@H](CO[C@@H]7OC[C@@H](O)[C@H](O)[C@H]7O[C@@H]7O[C@H](CO)[C@@H](O)[C@H](O)[C@H]7O)[C@@H](O)[C@H](O)[C@H]6O)C(C)(C)[C@@H]5CC[C@@]4(C)[C@]3(C)C[C@@H](O)[C@@]23C[C@@H]1OC3=O,Activity,Rattus norvegicus [1],100%
CC1(C)C[C@H]2C3=CC[C@@H]4[C@@]5(C)CC[C@H](O[C@@H]6O[C@H](CO[C@@H]7OC[C@@H](O)[C@H](O)[C@H]7O[C@@H]7O[C@H](CO)[C@@H](O)[C@H](O)[C@H]7O)[C@@H](O)[C@H](O)[C@H]6O[C@@H]6O[C@H](CO)[C@@H](O)[C@H](O)[C@H]6O)C(C)(C)[C@@H]5CC[C@@]4(C)[C@]3(C)C[C@@H](O)[C@@]23C[C@@H]1OC3=O,Activity,Rattus norvegicus [1],100%
Oc1cc(O)c2c(c1)O[C@H](c1ccc(O)c(O)c1)[C@H](O)C2,inhibition,Homo sapiens,53%
C[C@@H]1C[C@H](O)[C@]2(O)O[C@@H]3C[C@@]4(C=O)[C@@H](CC[C@@H]5[C@@H]4CC[C@]4(C)[C@@H](C6=CC(=O)OC6)CC[C@]54O)C[C@H]3O[C@@H]2O1 [CALOTROPIN],Activity,Oryctolagus cuniculus,94%
same,Activity,Meriones unguiculatus,65.2%
C=C1CC/C=C(/C)CC[C@@H]2[C@@H]1CC2(C)C [CARYOPHYLLENE],Activity,Rattus norvegicus [2],36.2%
same,LD50,[3],> 5000 mg/kg
same,Activity,Rattus norvegicus [4],20.8 10^6/ml
same,Activity,Rattus norvegicus [5],57.4%
CCCCCCCCCCCC1=C(O)C(=O)C=C(O)C1=O [EMBELIN],Activity,Rattus norvegicus [6],9.5%
C=C(C)[C@@H]1CC[C@]2(C)CC[C@]3(C)[C@H](CC[C@@H]4[C@@]5(C)CC[C@H](O)C(C)(C)[C@@H]5CC[C@]43C)[C@@H]12 [LUPEOL],Activity,Rattus norvegicus [7],100%
CC1(C)CC[C@]2(C(=O)O)CC[C@]3(C)C(=CC[C@@H]4[C@@]5(C)CC[C@H](O)C(C)(C)[C@@H]5CC[C@]43C)[C@@H]2C1 [OLEANOLIC_ACID],Activity,Mus musculus [8],60%
O=C(/C=C/C=C/c1ccc2c(c1)OCO2)N1CCCCC1 [PIPERINE],Activity,Hamster,3.89%
COC(=O)C1=CO[C@@H](O[C@@H]2O[C@H](CO)[C@@H](O)[C@H](O)[C@H]2O)[C@H]2[C@@H]1C=C[C@@]21C=C([C@H](C)O)C(=O)O1 [PLUMIERIDE],Activity,Rattus norvegicus [9],87%
same,Activity,Rattus norvegicus [10],59%
same,Activity,Rattus norvegicus [11],29%
CC(C)[C@]12O[C@H]1[C@@H]1O[C@]13[C@]1(O[C@H]1C[C@H]1C4=C(CC[C@@]13C)C(=O)OC4)[C@@H]2O [TRIPTOLIDE],Activity,Rattus norvegicus [12],100%
CC(C)[C@]12O[C@H]1[C@@H]1O[C@@]13[C@@]1(C)CCC4=C(COC4=O)[C@@H]1C[C@@H]1O[C@@]13C2=O [TRIPTONIDE],Activity,Mus musculus [13],100%
same,Activity,Mus musculus [14],100%
same,LD50,[15],980 mg/kg
same,LD50,[16],300 mg/kg
same,EC50,Mus musculus [17],0.9 mg/kg
